The target of one assay is T1, human recombinant GR (Homo sapiens, UniProt P04150).
T1 construct: purchased PanVera P2812
T1 sequence (P04150 1-777): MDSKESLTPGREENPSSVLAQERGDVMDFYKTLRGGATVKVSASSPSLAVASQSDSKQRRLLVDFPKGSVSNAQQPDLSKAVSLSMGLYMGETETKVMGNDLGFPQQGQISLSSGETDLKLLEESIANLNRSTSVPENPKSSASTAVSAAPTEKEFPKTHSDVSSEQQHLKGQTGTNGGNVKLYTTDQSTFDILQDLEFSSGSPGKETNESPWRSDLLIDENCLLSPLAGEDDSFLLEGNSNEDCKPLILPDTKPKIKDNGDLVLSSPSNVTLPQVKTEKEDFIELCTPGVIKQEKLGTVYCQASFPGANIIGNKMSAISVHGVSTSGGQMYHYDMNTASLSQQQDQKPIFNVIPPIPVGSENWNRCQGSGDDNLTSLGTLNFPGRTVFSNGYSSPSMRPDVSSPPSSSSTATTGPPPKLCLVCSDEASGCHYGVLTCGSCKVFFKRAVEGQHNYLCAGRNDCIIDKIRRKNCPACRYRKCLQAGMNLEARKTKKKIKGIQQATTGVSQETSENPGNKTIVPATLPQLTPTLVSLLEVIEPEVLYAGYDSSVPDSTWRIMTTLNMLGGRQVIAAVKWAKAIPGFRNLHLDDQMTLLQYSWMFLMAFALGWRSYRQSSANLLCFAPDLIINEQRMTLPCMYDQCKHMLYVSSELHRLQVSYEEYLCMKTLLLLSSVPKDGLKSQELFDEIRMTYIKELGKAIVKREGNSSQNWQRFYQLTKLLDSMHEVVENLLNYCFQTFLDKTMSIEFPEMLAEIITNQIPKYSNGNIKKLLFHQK
The assay is described as follows: Human Glucocorticoid Receptor (GR) Fluorescence Polarisation (FP) Binding Assay. The conditions noted are these: Ki from IC50 by ligand depletion correction; displacement of Fluorome GS Red. On the procedure:
The following is a description of a FP assay for measuring compound inhibition of labelled glucocorticoid binding to the human recombinant GR.
The binding affinity of test compounds was determined using a FP binding assay using human recombinant GR (PanVera P2812) and a fluorescent labelled glucocorticoid ligand (Fluorome GS Red) (PanVera P2894). The presence of inhibitors prevents the formation of a GS Red/GR complex resulting in a decrease in the measured polarisation value. The change in polarisation value in the presence of test compounds is used to calculate the binding affinity of the compound for GR.
This assay was performed in 384 well, black, round-bottom, polypropylene micro titre plates in a final volume of 20 μl. The assay contained 5 μl 1 nM GR (final concentration), 5 μl 0.5 nM Fluorome GS Red (final concentration) in the presence of 10p test compounds. Positive control wells (high polarisation) receive, 10 μl 2% (v:v) DMSO vehicle (1% (v/v) final concentration)+5 μl 1 nM GR and 5 μl 0.5 nM Fluorome GS Red. […] Assay blank background wells (used for normalisation) receive 15 μl 1×GS screening buffer+5 μl GR.
For the IC50 determination (concentration of compound that displaces 50% of the bound GS Red), compounds were tested at eight different concentrations in duplicate in two independently performed experiments. Compounds were prepared as solubilised solids at 10 mM in DMSO. On the day of assay, an 8 point half-log serial dilution (55 μl DMSO+25 μl compound solution) was prepared. A 1:50 dilution (1 μl compound solution+49 μl 1×GR screening buffer) was prepared for each compound. The compounds were prepared at 2× final assay concentration.
The plates were mixed and incubated for 4 hour at room temperature. FP was measured using an Envision Excite plate reader with 535 nm excitation and 590 nm emission interference filters.
Milli-polarisation (mP) values were calculated using the below equation: mP=1000*(S−G*P)/(S+G*P) where S and P are assay blank background subtracted fluorescence units, G=G-factor (1.07).
Compound IC50 values were calculated by plotting a [compound] v. % inhibition curve and fitting the data to a 4-parameter logistic fit equation.
10×GR screening buffer (100 mM potassium phosphate pH 7.4, 200 mM Na2MoO4, 1 mM EDTA, 20% (v/v) DMSO). To prepare 1×GR screening buffer, combine 1 ml 10×GR screening buffer (PanVera P2814)+1 ml stabilising peptide (PanVera P2815)+7.95 ml 4° C. MQ water. Add 50p 1M DTT, vortex and place on ice until use.

The next assay addresses T2, glucocorticoid receptor (Homo sapiens, UniProt P04150).
T2 construct: endogenous in cells; host or cells: HepG2
T2 sequence (P04150 1-777): T1 sequence (P04150 1-777)
The assay is described as follows: HepG2 Tyrosine Aminotransferase (TAT) Assay. The class given is cell-based. The procedure:
Glucocorticoid mediated activation of TAT occurs by transactivation of glucocorticoid response elements in the TAT promoter by glucocorticoid receptor-agonist complex.
HepG2 cells were cultured using MEME media supplemented with 10% (v/v) foetal bovine serum; 2 mM L-glutamine and 1% (v/v) NEAA at 37° C., 5%/95% (v/v) CO2/air.
Compounds were serially half log diluted in 100% (v/v) dimethylsulphoxide from a 10 mM stock.
HepG2 cells were then lysed with 30 μl of cell lysis buffer containing a protease inhibitor cocktail for 15 minutes at 4° C. […] After 2 hours incubation at 37° C. the reaction was terminated by the addition of 15 μl of 10 M aqueous potassium hydroxide solution, and the plates incubated for a further 30 minutes at 37° C.
[compound] and fitting the data to a 4 parameter logistic equation.

With `O=C(c1ccccn1)[C@]12Cc3cnn(-c4ccc(F)cc4)c3C[C@@H]1CCN(S(=O)(=O)c1ccc(C(F)(F)F)cc1)C2` [Example 1A, ((4aR,8aS)-1-(4-fluorophenyl)-6-((4-(trifluoromethyl)phenyl)sulfonyl)-4,4a,5,6,7,8,8a,9-octahydro-1H-pyrazolo[3,4-g]isoquinolin-4a-yl)(pyridin-2-yl)methanone], the Ki on human recombinant GR is 0.5 to 1 nM; on glucocorticoid receptor it was 20 to 100 nM. For the compound `O=C(c1ccccn1)[C@]12Cc3cnn(-c4ccc(F)cc4)c3C[C@@H]1CCN(S(=O)(=O)c1ccc(Cl)c(Cl)c1)C2` [Example 1B, ((4aR,8aS)-6-((3,4-dichlorophenyl)sulfonyl)-1-(4-fluorophenyl)-4,4a,5,6,7,8,8a,9-octahydro-1H-pyrazolo[3,4-g]isoquinolin-4a-yl)(pyridin-2-yl)methanone], the Ki on human recombinant GR was more than 1 nM; at glucocorticoid receptor, 20 to 100 nM. Take `O=C(c1ccccn1)[C@]12Cc3cnn(-c4ccc(F)cc4)c3C[C@@H]1CCN(S(=O)(=O)c1ccc(F)c(F)c1)C2` [Example 1C, ((4aR,8aS)-6-((3,4-difluorophenyl)sulfonyl)-1-(4-fluorophenyl)-4,4a,5,6,7,8,8a,9-octahydro-1H-pyrazolo[3,4-g]isoquinolin-4a-yl)(pyridin-2-yl)methanone]: the values for the Ki at human recombinant GR and at glucocorticoid receptor were more than 1 nM and 20 to 100 nM, respectively. The matching figures for `CCCn1ncc(S(=O)(=O)N2CC[C@H]3Cc4c(cnn4-c4ccc(F)cc4)C[C@]3(C(=O)c3ccccn3)C2)n1` [Example 2A, ((4aR,8aS)-1-(4-fluorophenyl)-6-((2-propyl-2H-1,2,3-triazol-4-yl)sulfonyl)-4,4a,5,6,7,8,8a,9-octahydro-1H-pyrazolo[3,4-g]isoquinolin-4a-yl)(pyridin-2-yl)methanone]: less than 0.5 nM and less than 20 nM.

For the compound `CC(C)n1cc(S(=O)(=O)N2CC[C@H]3Cc4c(cnn4-c4ccc(F)cc4)C[C@]3(C(=O)c3ccccn3)C2)cn1` [Example 2AA, ((4aR,8aS)-1-(4-fluorophenyl)-6-((1-isopropyl-1H-pyrazol-4-yl)sulfonyl)-4,4a,5,6,7,8,8a,9-octahydro-1H-pyrazolo[3,4-g]isoquinolin-4a-yl)(pyridin-2-yl)methanone], the Ki on human recombinant GR was less than 0.5 nM; on glucocorticoid receptor, 20 to 100 nM.

With `CCn1ncc(S(=O)(=O)N2CC[C@H]3Cc4c(cnn4-c4ccc(F)cc4)C[C@]3(C(=O)c3ccccn3)C2)n1` [Example 2AB, ((4aR,8aS)-6-((2-ethyl-2H-1,2,3-triazol-4-yl)sulfonyl)-1-(4-fluorophenyl)-4,4a,5,6,7,8,8a,9-octahydro-1H-pyrazolo[3,4-g]isoquinolin-4a-yl)(pyridin-2-yl)methanone], the Ki was less than 0.5 nM on human recombinant GR and 20 to 100 nM on glucocorticoid receptor. For `Cn1ncc(S(=O)(=O)N2CC[C@H]3Cc4c(cnn4-c4ccc(F)cc4)C[C@]3(C(=O)c3ccccn3)C2)n1` [Example 2AC, ((4aR,8aS)-1-(4-fluorophenyl)-6-((2-methyl-2H-1,2,3-triazol-4-yl)sulfonyl)-4,4a,5,6,7,8,8a,9-octahydro-1H-pyrazolo[3,4-g]isoquinolin-4a-yl)(pyridin-2-yl)methanone], in that order: more than 1 nM and 20 to 100 nM.

`CC(C)n1ncc(S(=O)(=O)N2CC[C@H]3Cc4c(cnn4-c4ccc(F)cc4)C[C@]3(C(=O)c3cc(C(F)(F)F)ccn3)C2)n1` [Example 2AD, ((4aR,8aS)-1-(4-fluorophenyl)-6-((2-isopropyl-2H-1,2,3-triazol-4-yl)sulfonyl)-4,4a,5,6,7,8,8a,9-octahydro-1H-pyrazolo[3,4-g]isoquinolin-4a-yl)(4-(trifluoromethyl)pyridin-2-yl)methanone]: the figures for the inhibition constant Ki at human recombinant GR and at glucocorticoid receptor were less than 0.5 nM and less than 20 nM, respectively. The matching figures for `O=C(c1cc(C(F)(F)F)ccn1)[C@]12Cc3cnn(-c4ccc(F)cc4)c3C[C@@H]1CCN(S(=O)(=O)c1cn[nH]n1)C2` [Example 2AE, ((4aR,8aS)-6-((2H-1,2,3-triazol-4-yl)sulfonyl)-1-(4-fluorophenyl)-4,4a,5,6,7,8,8a,9-octahydro-1H-pyrazolo[3,4-g]isoquinolin-4a-yl)(4-(trifluoromethyl)pyridin-2-yl)methanone]: more than 1 nM and more than 100 nM. For `CC(C)n1cc(S(=O)(=O)N2CC[C@H]3Cc4c(cnn4-c4ccc(F)cc4)C[C@]3(C(=O)c3ccccn3)C2)nn1` [Example 2AF, ((4aR,8aS)-1-(4-fluorophenyl)-6-((1-isopropyl-1H-1,2,3-triazol-4-yl)sulfonyl)-4,4a,5,6,7,8,8a,9-octahydro-1H-pyrazolo[3,4-g]isoquinolin-4a-yl)(pyridin-2-yl)methanone], in that order: more than 1 nM and 20 to 100 nM. `O=C(c1nccs1)[C@]12Cc3cnn(-c4ccc(F)cc4)c3C[C@@H]1CCN(S(=O)(=O)c1cccc(C(F)(F)F)n1)C2` [Example 2AG, ((4aR,8aS)-1-(4-fluorophenyl)-6-((6-(trifluoromethyl)pyridin-2-yl)sulfonyl)-4,4a,5,6,7,8,8a,9-octahydro-1H-pyrazolo[3,4-g]isoquinolin-4a-yl)(thiazol-2-yl)methanone]: the Ki was 0.5 to 1 nM at human recombinant GR and 20 to 100 nM at glucocorticoid receptor.

In the case of `O=C(c1cscn1)[C@]12Cc3cnn(-c4ccc(F)cc4)c3C[C@@H]1CCN(S(=O)(=O)c1cccc(C(F)(F)F)n1)C2` [Example 2AH, ((4aR,8aS)-1-(4-fluorophenyl)-6-((6-(trifluoromethyl)pyridin-2-yl)sulfonyl)-4,4a,5,6,7,8,8a,9-octahydro-1H-pyrazolo[3,4-g]isoquinolin-4a-yl)(thiazol-4-yl)methanone], the figures for the inhibition constant Ki at human recombinant GR and on glucocorticoid receptor were 0.5 to 1 nM and less than 20 nM, respectively. As to `Cn1ncc(S(=O)(=O)N2CC[C@H]3Cc4c(cnn4-c4ccc(F)cc4)C[C@]3(C(=O)c3cscn3)C2)n1` [Example 2AI, ((4aR,8aS)-1-(4-fluorophenyl)-6-((2-methyl-2H-1,2,3-triazol-4-yl)sulfonyl)-4,4a,5,6,7,8,8a,9-octahydro-1H-pyrazolo[3,4-g]isoquinolin-4a-yl)(thiazol-4-yl)methanone], the Ki on human recombinant GR is more than 1 nM; on glucocorticoid receptor, 20 to 100 nM. On glucocorticoid receptor, `CCn1ncc(S(=O)(=O)N2CC[C@H]3Cc4c(cnn4-c4ccc(F)cc4)C[C@]3(C(=O)c3cscn3)C2)n1` [Example 2AK, ((4aR,8aS)-6-((2-ethyl-2H-1,2,3-triazol-4-yl)sulfonyl)-1-(4-fluorophenyl)-4,4a,5,6,7,8,8a,9-octahydro-1H-pyrazolo[3,4-g]isoquinolin-4a-yl)(thiazol-4-yl)methanone] had a Ki of less than 20 nM.

(Values after patent US12139486B2, “Octahydro fused azadecalin glucocorticoid receptor modulators” (Corcept Therapeutics, Inc., priority 2013, dated 2024).)
